# Measurements from patent publication US20220281876A1, “DEGRADATION OF BRUTON'S TYROSINE KINASE (BTK) BY CONJUGATION OF BTK INHIBITORS WITH E3 LIGASE LIGAND AND METHODS OF USE” (BEIGENE, LTD., priority 2019, published 2022).
# Target: T1, BTK (Homo sapiens, UniProt Q06187)
# T1 construct: endogenous in cells; host or cells: Ramos cells
# Assay: BTK cell degradation in Ramos cells (total BTK ELISA)
# Format: cell-based
# Settings: 16 h incubation, FastScan total BTK ELISA
# How it was run: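 Ramos cells were treated for 16 h with compounds (7 doses, 5-fold dilution series, 0.1% DMSO). Total BTK in cell lysates was quantified by sandwich ELISA with TMB read-out at 450 nm.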
# T1 sequence (Q06187 whole entry): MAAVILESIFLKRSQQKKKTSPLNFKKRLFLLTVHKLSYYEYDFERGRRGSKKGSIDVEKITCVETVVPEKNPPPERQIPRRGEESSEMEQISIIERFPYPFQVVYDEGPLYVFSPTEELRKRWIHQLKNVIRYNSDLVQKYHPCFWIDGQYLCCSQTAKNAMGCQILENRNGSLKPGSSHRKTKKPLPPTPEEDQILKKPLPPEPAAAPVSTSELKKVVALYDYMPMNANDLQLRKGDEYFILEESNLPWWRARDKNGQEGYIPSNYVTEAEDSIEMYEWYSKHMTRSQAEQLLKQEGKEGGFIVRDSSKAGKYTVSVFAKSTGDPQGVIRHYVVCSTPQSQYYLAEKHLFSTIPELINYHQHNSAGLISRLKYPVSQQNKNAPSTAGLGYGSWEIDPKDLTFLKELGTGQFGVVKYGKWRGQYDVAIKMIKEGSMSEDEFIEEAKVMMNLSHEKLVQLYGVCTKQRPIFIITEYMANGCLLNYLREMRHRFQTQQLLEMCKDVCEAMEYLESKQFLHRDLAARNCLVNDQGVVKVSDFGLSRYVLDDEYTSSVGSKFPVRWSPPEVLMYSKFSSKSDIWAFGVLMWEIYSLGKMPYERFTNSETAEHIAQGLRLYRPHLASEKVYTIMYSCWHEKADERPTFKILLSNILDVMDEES
row,DC50,SMILES
1,7.2 nM,"CN(CC1CCN(C(=O)c2ccc(N3CCC(=O)NC3=O)cc2)CC1)C1CC(C(=O)N2CCC([C@@H]3CCNc4c(C(N)=O)c(-c5ccc(Oc6ccccc6)cc5)nn43)CC2)C1 (stereo partly drawn) [Example 155, (S)-7-(1-(3-(((1-(4-(2,4-dioxotetrahydropyrimidin-1(2H)-yl)benzoyl)piperidin-4-yl)methyl)(methyl)amino)cyclobutane-1-carbonyl)piperidin-4-yl)-2-(4-phenoxyphenyl)-4,5,6,7-tetrahydropyrazolo[1,5-a]pyrimidine-3-carboxamide]"
2,1680 nM,"NC(=O)c1c(-c2ccc(Oc3ccccc3)cc2)nn2c1NCC[C@H]2C1CCN(C(=O)CCN2CCC(N3CCN(c4ccc5c(c4)C(=O)N(C4CCC(=O)NC4=O)C5=O)CC3)CC2)CC1 (stereo partly drawn) [Example 156, (7S)-7-(1-(3-(4-(4-(2-(2,6-dioxopiperidin-3-yl)-1,3-dioxoisoindolin-5-yl)piperazin-1-yl)piperidin-1-yl)propanoyl)piperidin-4-yl)-2-(4-phenoxyphenyl)-4,5,6,7-tetrahydropyrazolo[1,5-a]pyrimidine-3-carboxamide]"

# The remaining lines, values behind:
row,SMILES,DC50
1,"NC(=O)c1c(-c2ccc(Oc3ccccc3)cc2)nn2c1NCC[C@H]2C1CCN(C(=O)CCC2CCC(N3CCN(c4ccc5c(c4)C(=O)N(C4CCC(=O)NC4=O)C5=O)CC3)CC2)CC1 (stereo partly drawn) [Example 151, (7S)-7-(1-(3-(4-(4-(2-(2,6-dioxopiperidin-3-yl)-1,3-dioxoisoindolin-5-yl)piperazin-1-yl)cyclohexyl)propanoyl)piperidin-4-yl)-2-(4-phenoxyphenyl)-4,5,6,7-tetrahydropyrazolo[1,5-a] pyrimidine-3-carboxamide]",17 nM
2,"NC(=O)c1c(-c2ccc(Oc3ccccc3)cc2)nn2c1NCC[C@H]2C1CCN(C(=O)CCCN2CCN(C(=O)CNc3ccc4c(c3)C(=O)N(C3CCC(=O)NC3=O)C4=O)CC2)CC1 (stereo partly drawn) [Example 152, (7S)-7-(1-(4-(4-((2-(2,6-dioxopiperidin-3-yl)-1,3-dioxoisoindolin-5-yl)glycyl)piperazin-1-yl)butanoyl)piperidin-4-yl)-2-(4-phenoxyphenyl)-4,5,6,7-tetrahydropyrazolo[1,5-a]pyrimidine-3-carboxamide]",35 nM
3,"NC(=O)c1c(-c2ccc(Oc3ccccc3)cc2)nn2c1NCC[C@H]2C1CCN(C(=O)CCNc2cccc3c2C(=O)N(C2CCC(=O)NC2=O)C3=O)CC1 (stereo partly drawn) [Example 154, (7S)-7-(1-(3-((2-(2,6-dioxopiperidin-3-yl)-1,3-dioxoisoindolin-4-yl)amino)propanoyl)piperidin-4-yl)-2-(4-phenoxyphenyl)-4,5,6,7-tetrahydropyrazolo[1,5-a]pyrimidine-3-carboxamide]",637 nM
